From PubChem BioAssay AID624344 (Sanford-Burnham Center for Chemical Genomics, 2012)
Activity calls are given as the source filed them. No rule for the calls is given here. Square brackets hold non-standard residues; d marks the D form. Peptide text beside a SMILES is read from it. NMeY = CN[C@@H](Cc1ccc(O)cc1)C(=O)O; NMeF = CN[C@@H](Cc1ccccc1)C(=O)O; 2Abz = Nc1ccccc1C(=O)O

Key:
[1] = NFkB reporter suppression in cystic fibrosis bronchial cells – cell-based, uHTS hits, panel, cytotoxicity readout, dose response (AID 624344); details: CF bronchial epithelial cells, PAF-induced NFkB reporter inhibition; with PAF, mean of runs
Cytotoxicity = assay: as above; details: CF bronchial epithelial cells, mean of runs

Structure (SMILES)	IC50 [1]	IC50 (Cytotoxicity)
CC(=O)OCCCNc1cc(Sc2ccc(Cl)cc2)c2nonc2c1[N+](=O)[O-]	13 µM	11.1 µM
CC(C)=CCc1c(O)cc(O)c2c1OC(c1ccc(O)cc1)CC2=O (configuration not stated)	4.52 µM	43.6 µM
CC(C)C[C@@H]1NC(=O)[C@H](Cc2ccccc2)N(C)C(=O)[C@H](C)NC(=O)c2ccccc2NC(=O)[C@H](Cc2ccc(O)cc2)N(C)C1=O (cyclo([2Abz]A[NMeF]L[NMeY]))	3.42 µM	6.59 µM
Cc1ccc(S(=O)(=O)Nc2nc3ccccc3nc2Nc2cccc(S(=O)(=O)N3CCCC3)c2)cc1	3.57 µM	41.3 µM
COc1ccc2c(c1OC)C(=O)N1c3ccccc3C(=O)N(c3ccccc3)C21 (configuration not stated)	0.902 µM	2.94 µM
CCOc1ccccc1NC(=O)c1nc(S(=O)(=O)Cc2ccccc2)ncc1Cl	1.83 µM	2.27 µM
O=C(NCc1ccccc1)C1=C[C@H](c2csc3ccccc23)C[C@H](OCc2ccc(CO)cc2)O1	inactive	12.8 µM
O=C(c1cncc(Br)c1)N1CCc2ccccc2C1	8.73 µM	> 79 µM (inactive)
CCOC(=O)c1c(C)c2c(=O)[nH]cnc2n1-c1ccccc1	1.89 µM	13.9 µM
CC(=O)Nc1ccc(-c2ccnc3c2CC(C(=O)NCc2ccco2)O3)cc1 (configuration not stated)	inactive	> 79 µM (inactive)
O=S1(=O)CCC(NC(=S)SCCOc2ccccc2)C1 (configuration not stated)	4.58 µM	20.1 µM
O=S(=O)(Nc1cccc2cccnc12)c1ccccc1	1.69 µM	44.5 µM
O=C(O)/C=C/c1ccc2c(-c3ccccc3)onc2c1	1.81 µM	4.73 µM
CC(C)CNC(=O)c1coc(=O)c(Br)c1	4.35 µM	8.73 µM
COc1ccc(-n2nnnc2C(CCc2ccccc2)N2CCC(n3c(=O)[nH]c4ccccc43)CC2)cc1 (configuration not stated)	6.25 µM	11.1 µM
CC1=C(C(=O)OCc2ccc3c(c2)OCO3)C(c2cccc([N+](=O)[O-])c2)NC(=O)N1 (configuration not stated)	2.71 µM	> 79 µM (inactive)
c1cc(-c2nnc3sc(C4CCCCC4)nn23)ccn1	3.45 µM	> 79 µM (inactive)
Cc1ccnc(NC(=O)Cc2ccc(-c3ccccc3)cc2)c1	9.06 µM	47.8 µM
CN(C)c1ccnc2sc3c(=O)n(Cc4ccccc4)cnc3c12	1.27 µM	> 79 µM (inactive)
COc1ccc(-c2cn[nH]c2-c2ccc(OCc3ccccc3F)cc2O)cc1OC	3.57 µM	18 µM
COc1ccc(-c2csc(NC3OC(=O)c4c3ccc(OC)c4OC)n2)cc1OC (configuration not stated)	3.12 µM	> 79 µM (inactive)

Structure (SMILES)	IC50 [1]	IC50 (Cytotoxicity)
COc1ccc(-n2nnnc2C(CCSC)N2CCC(n3c(=O)[nH]c4ccccc43)CC2)cc1 (configuration not stated)	6.48 µM	13.7 µM
CC(=O)c1c(C)n(C2CCCCC2)c2ccc(O)cc12	0.797 µM	> 79 µM (inactive)
CC1Cc2ccccc2N1c1ncnc2nc[nH]c12 (configuration not stated)	2.46 µM	36.2 µM
COc1cccc(OC)c1C(=O)Nc1cc(C)nn1-c1nc2ccccc2[nH]1	3.77 µM	10 µM
CCCCNc1c(-c2cccc(-c3ccc(OC)cc3)c2)nc2ccc(C)cn12	4.98 µM	1.72 µM
O=C(/C=C/c1cccc([N+](=O)[O-])c1)NC(=S)Nc1ccc(CN2CCOCC2)cc1	5.19 µM	19.8 µM
O=c1c(-c2c(O)cc(O)c3c2O[C@H](c2ccc(O)cc2)CC3)c(-c2ccc(O)cc2)oc2cc(O)cc(O)c12	1.44 µM	5.44 µM
COc1ccc(-n2ncc3c(N4CCN(Cc5ccccc5)CC4)ncnc32)cc1	3.85 µM	6.95 µM
C=CCN1c2ccccc2Sc2cnccc21	2.59 µM	40.6 µM
Cc1ccc(S(=O)(=O)Nc2ccc3cc([N+](=O)[O-])ccc3c2[N+](=O)[O-])cc1	3.17 µM	4.15 µM
Cc1ccc(NS(=O)(=O)c2ccc(-c3cnc(C4CC4)o3)cc2)c(C)c1	14.2 µM	32.5 µM
COc1ccc(-c2oc3ccc(-c4ccc5c(c4)OCO5)cc3c2C#CC2(O)CCCCC2)cc1	2.67 µM	41.3 µM
CC(=O)Oc1ccccc1C(=O)Oc1ccc(/C=N/n2cnnc2)cc1	inactive	59.5 µM (inactive)
CCSc1nsc(NC(=O)Nc2cccc(C(C)=O)c2)n1	2.24 µM	36.5 µM
O=C1NCCc2c1[nH]c1c(Cl)ccc(Cl)c21	1.54 µM	11 µM
Cc1ccc(C(=O)Nc2cccc(C(F)(F)F)c2)cc1NC(=O)c1ccno1	0.626 µM	> 79 µM (inactive)
Cc1cccc(N2CCN(C(=O)CCn3c(=S)[nH]c4cc5c(cc4c3=O)OCO5)CC2C)c1 (configuration not stated)	6.2 µM	18.5 µM
COc1cccc2sc(N(CCCN(C)C)C(=O)CCS(=O)(=O)c3ccccc3)nc12	2.34 µM	4.84 µM
CCC1=Nc2cc(C(=O)NCc3ccco3)ccc2Sc2ccc(C)cc21	11.7 µM	57.9 µM (inactive)
Cc1ccc2c(c1)C(=O)C(=O)N2Cc1ccc(Br)cc1	19.1 µM	> 79 µM (inactive)
CCn1c(=O)c2c(cnn2C)c2ccccc21	2.18 µM	46.2 µM

Structure (SMILES)	IC50 [1]	IC50 (Cytotoxicity)
Cc1c(C=O)c(C=O)c(C)n1Cc1ccccc1	1.64 µM	4.67 µM
O=c1[nH]c(C2CCN(S(=O)(=O)c3ccc4c(c3)OCCO4)CC2)nc2c1nnn2Cc1c(F)cccc1Cl	5.74 µM	44.5 µM
CCN(CC(=O)Nc1ccc(OC)cc1)C(=O)c1cc(-c2cccs2)nn1-c1ccccc1	5.29 µM	7.56 µM
C=C1C(=O)C23C(O)C1CCC2C12COC3(O)C(O)C1C(C)(C)CCC2O (configuration not stated)	3.69 µM	5.5 µM
COc1ccc(-c2cc(=O)oc3cc(OC(=O)C4CCCCC4)c(Cl)cc23)cc1	0.302 µM	61.6 µM (inactive)
N=C1N(c2ccccc2)C(=S)C(=Nc2ccccc2)N1c1ccccc1	14.7 µM	33 µM
CC1(C)CC(=O)C(C2C3=C(CC(C)(C)CC3=O)Oc3c(Br)cc(Br)cc32)=C(O)C1 (configuration not stated)	6.19 µM	15.1 µM
C[C@@H]1CN([C@H](C)CO)C(=O)c2cc(NC(=O)Nc3ccc(C(F)(F)F)cc3)ccc2O[C@H]1CN(C)S(=O)(=O)c1ccc(Cl)cc1	14.1 µM	> 79 µM (inactive)
Cc1ccc(C(=O)c2cc([N+](=O)[O-])ccc2N2CCCCC2)c(C)c1	6.86 µM	> 79 µM (inactive)
CCC(CO)Oc1cc(NCc2ccc(Cl)cc2Cl)c2ncn(C(C)C)c2c1 (configuration not stated)	inactive	11 µM
COc1ccc2c(c1)[nH]c1c(C)nccc12	3.77 µM	> 79 µM (inactive)
CN(C)c1ccc(-c2nn3c(-c4ccccc4Cl)nnc3s2)cc1	19.2 µM	> 79 µM (inactive)
C=C1C(=O)[C@]23C[C@H]1CC[C@H]2[C@]1(C)[C@@H](OC(C)=O)CC[C@@](C)(C(=O)O)[C@H]1C[C@@H]3O	0.938 µM	8.28 µM
COc1ccc(-c2cn[nH]c2-c2ccc(OC)cc2)cc1	2.53 µM	63.5 µM (inactive)
N#CC(C#N)=C1SC(=Nc2ccccc2)C(=Nc2ccccc2)N1c1ccccc1	8.12 µM	12.4 µM
COc1cccc(-c2ccc3ncnc(NCc4cccs4)c3c2)c1	2.91 µM	13.6 µM
Cc1ccc(Cl)cc1-c1cc(C(=O)NCc2cc(C(F)(F)F)cc(C(F)(F)F)c2)[nH]n1	8.92 µM	16.6 µM
O=C(c1ccccc1)C1OC1C(=O)c1ccccc1 (configuration not stated)	6.25 µM	54.5 µM (inactive)
COc1ccc(-c2csc(/C(C#N)=C\c3ccc(O)c([N+](=O)[O-])c3)n2)cc1OC	2.82 µM	45.9 µM
CC(C)CN=C(NS(=O)(=O)c1ccccc1)C(Cl)(Cl)Cl	2.93 µM	44.5 µM
CC1CCN(CC(CS(=O)(=O)c2ccc([N+](=O)[O-])cc2)N2CCC(C)CC2)CC1 (configuration not stated)	2.44 µM	3.57 µM

Structure (SMILES)	IC50 [1]	IC50 (Cytotoxicity)
CNC(=O)COC(=O)c1ccccc1C(=O)c1ccc(Cl)c([N+](=O)[O-])c1	1.01 µM	3.7 µM
COC(=O)N1C(=O)[C@@](c2ccccc2)(C(C)C)N1C(=O)OC	4.26 µM	38.7 µM
O=c1c(O)c(-c2ccccc2)oc2cc(O)cc(O)c12	3.27 µM	54 µM (inactive)
CCC1=C(CC2NCCc3ccccc32)CC2c3cc(OC)c(OC)cc3CCN2C1 (configuration not stated)	4.34 µM	30 µM
Brc1ccc2ncnc(NCc3ccco3)c2c1	5.67 µM	72.7 µM (inactive)
CCOc1cc(Br)c(Br)c(C=Nc2ccc(NC(C)=O)cc2)c1O	3.91 µM	> 79 µM (inactive)
COCc1cc(S(=O)c2ccc(Cl)cc2)nc(C)n1 (configuration not stated)	3.13 µM	22 µM
O=S(=O)(Nc1nc2ccccc2nc1N1CCN(c2ccccc2F)CC1)c1ccc(Cl)cc1	5.66 µM	10.5 µM
CC(C)Cc1nc2oc3c(NCC4CCCO4)ncnc3c2c2c1CCC2 (configuration not stated)	2.87 µM	3.76 µM
Cc1[nH]nc2ncc(C(=O)c3ccccc3O)cc12	1.68 µM	24.3 µM
CCN(c1ccc(OC)cc1)c1ncnc2nc[nH]c12	3.62 µM	> 79 µM (inactive)
CCCn1c(-c2nonc2N)nc2ccccc21	4.28 µM	31.6 µM
COc1ccc2[nH]c(=O)c(CN(Cc3cccnc3)S(=O)(=O)c3ccccc3F)cc2c1	2.1 µM	3.68 µM
CC(NC(=O)OCc1ccccc1)C(=O)Oc1cc2oc(=O)cc(-c3ccccc3)c2cc1Cl (configuration not stated)	1.34 µM	27.9 µM
CCC(=O)c1ccc(O)c(CC=C(C)C)c1	5.27 µM	60.1 µM (inactive)
CCOC(=O)/C=c1/s/c(=C\c2c(OC)ccc3ccccc23)c(=O)n1CC(=O)NCC1CCCO1 (configuration not stated)	> 79 µM (inactive)	> 79 µM (inactive)
CC(C)c1nc(NCCO)c(C#N)c2c1CCCC2	5.77 µM	> 79 µM (inactive)
CCc1ccc(Nc2n[n+](-c3ccccc3)c(-c3c(Cl)cccc3Cl)s2)cc1	5.47 µM	6.29 µM
